Laboratory results reported in patent US8895744B2, “Alfa-carboline inhibitors of NPM-ALK, RET, and Bcr-Abl” (Universita' Degli Studi di Milano-Bicocca, priority 2008, dated 2014).

Assays:
[1] = tested on: Bcr-abl positive LAMA-84 cells; assay: Tritiated thymidine uptake cell proliferation assay, LAMA-84; format: cell-based; settings: Homo sapiens, 3[H]-thymidine uptake, 72 h
Procedure: (§1) Inhibition of the Proliferation of Bcr/Abl Positive Cells
(§2) Method: Tritiated Thymidine Uptake Cell Proliferation Assay
(§3) The following procedure was used with parent untransformed BaF3 cells, BaF3 cells transformed with the oncogenic fusion protein bcr-abl, Abl-negative U937 cells, or Bcr-abl positive LAMA-84 cells. The parent untransformed BaF3 cells and Abl-negative U937 cells are used as controls. Cells were seeded in U-bottomed 96-well plates at 10 000 cells/well in a volume of 100 μL in supplemented medium. In the case of the parent untransformed BaF3 cells, the medium was supplemented with IL-3. Serial dilutions of inhibitors were added to the appropriate wells and volumes adjusted to 200 μL. Controls were treated with the equivalent volume of vehicle, DMSO, alone. Plates were incubated at 37° C. for 72 h. ^3[H]-thymidine (1 μCi/well) was added for the last 16 h of incubation. Cells were harvested on to paper filters and ^3[H]-thymidine incorporation was measured using a β scintillation counter (1430 MicroBeta, Wallac, Turku, Finland). The 50% inhibitory concentration (IC50) was defined as the concentration of inhibitor, expressed in micromolar, that gave a 50% decrease in ^3H-thymidine uptake compared with controls.

[2] = target: T1, BaF3 cells transformed with the oncogenic fusion protein NPM/ALK (Homo sapiens, UniProt Q9UM73); assay: Tritiated thymidine uptake cell proliferation assay, BaF3 NPM/ALK; format: cell-based; settings: 3[H]-thymidine uptake, 72 h; read-out: BaF NPM/ALK IC50
T1 construct: fused on or other part: P06748 (Nucleophosmin)
T1 sequence (Q9UM73 whole entry, change not shown, the tested form may be a part): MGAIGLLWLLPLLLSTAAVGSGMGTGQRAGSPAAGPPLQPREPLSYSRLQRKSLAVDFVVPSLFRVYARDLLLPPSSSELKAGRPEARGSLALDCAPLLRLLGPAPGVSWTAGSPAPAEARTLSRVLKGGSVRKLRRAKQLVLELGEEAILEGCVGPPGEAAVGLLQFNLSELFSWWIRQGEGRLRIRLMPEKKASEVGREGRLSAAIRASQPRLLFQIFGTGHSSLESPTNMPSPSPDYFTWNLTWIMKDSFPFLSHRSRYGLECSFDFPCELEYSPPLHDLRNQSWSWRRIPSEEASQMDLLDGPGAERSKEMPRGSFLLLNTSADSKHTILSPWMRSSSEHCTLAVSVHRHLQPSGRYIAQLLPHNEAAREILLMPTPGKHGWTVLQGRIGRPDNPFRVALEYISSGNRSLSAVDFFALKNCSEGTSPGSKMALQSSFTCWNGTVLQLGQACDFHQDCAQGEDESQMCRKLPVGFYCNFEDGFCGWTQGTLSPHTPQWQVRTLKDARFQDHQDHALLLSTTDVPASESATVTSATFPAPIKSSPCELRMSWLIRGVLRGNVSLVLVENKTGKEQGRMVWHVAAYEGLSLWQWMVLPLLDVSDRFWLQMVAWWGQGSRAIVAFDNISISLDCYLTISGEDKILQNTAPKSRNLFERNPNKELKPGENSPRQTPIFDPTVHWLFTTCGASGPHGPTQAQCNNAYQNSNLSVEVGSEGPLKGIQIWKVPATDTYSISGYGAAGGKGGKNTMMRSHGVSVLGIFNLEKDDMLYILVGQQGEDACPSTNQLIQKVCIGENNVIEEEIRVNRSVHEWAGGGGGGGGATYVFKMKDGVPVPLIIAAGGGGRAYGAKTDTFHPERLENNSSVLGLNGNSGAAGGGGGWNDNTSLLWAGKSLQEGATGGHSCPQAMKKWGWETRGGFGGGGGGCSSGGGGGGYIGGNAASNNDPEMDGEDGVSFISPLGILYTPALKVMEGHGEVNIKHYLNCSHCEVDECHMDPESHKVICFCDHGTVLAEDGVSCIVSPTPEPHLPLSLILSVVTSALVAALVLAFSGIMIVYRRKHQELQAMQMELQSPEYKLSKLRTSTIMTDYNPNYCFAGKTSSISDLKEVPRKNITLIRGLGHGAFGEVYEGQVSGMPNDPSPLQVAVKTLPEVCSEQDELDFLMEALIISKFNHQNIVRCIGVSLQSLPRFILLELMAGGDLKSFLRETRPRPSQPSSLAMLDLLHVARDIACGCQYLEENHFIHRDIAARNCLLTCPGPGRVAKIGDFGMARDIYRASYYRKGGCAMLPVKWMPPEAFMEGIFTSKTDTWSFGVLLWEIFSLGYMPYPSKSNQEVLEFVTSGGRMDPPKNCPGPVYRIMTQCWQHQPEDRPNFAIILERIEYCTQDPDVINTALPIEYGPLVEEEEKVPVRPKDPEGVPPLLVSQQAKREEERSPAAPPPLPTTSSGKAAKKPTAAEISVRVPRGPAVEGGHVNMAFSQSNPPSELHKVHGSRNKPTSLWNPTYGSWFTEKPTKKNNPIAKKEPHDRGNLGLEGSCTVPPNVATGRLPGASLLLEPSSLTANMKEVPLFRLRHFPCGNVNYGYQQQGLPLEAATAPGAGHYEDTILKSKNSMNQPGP
How it was run: (§4)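 Cells were seeded at 10 000/well with serial inhibitor dilutions or DMSO vehicle and incubated 72 h at 37 °C, with ^3[H]-thymidine (1 μCi/well) added for the final 16 h. Incorporation was read by β scintillation counting. IC50 (μM) is the concentration giving a 50% decrease in uptake versus controls.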

[3] = target: T2, Recombinant Abl T315I protein (Homo sapiens, UniProt P00519, T315I); assay: Abl T315I mutant kinase inhibitory activity, ELISA-based in vitro kinase assay; format: biochemical; settings: purified Abl T315I, 0.3 mM ATP
T2 construct: made in house; host or cells: Sf9 cells (baculovirus)
How it was run: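 His-tagged human Abl T315I from Sf9 cells, preincubated 10 min at room temperature with inhibitor, then reacted on peptide-coated plates with 0.3 mM ATP, 1 mM MnCl2, 5 mM MgCl2 in 50 mM Tris pH 7.5. Phosphotyrosine detected by anti-pTyr/HRP ELISA at 450 nm; IC50 as 50% inhibition vs control.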

[4] = tested on: NPM/ALK positive SUDHL-1 cells; assay: Tritiated thymidine uptake cell proliferation assay, SUDHL-1; format: cell-based; settings: 3[H]-thymidine uptake, 72 h
How it was run: as §4

[5] = tested on: NPM/ALK positive KARPAS-299 cells; assay: Tritiated thymidine uptake cell proliferation assay, KARPAS-299; format: cell-based; settings: 3[H]-thymidine uptake, 72 h, read-out: K299 (NPM/ALK+) IC50
Procedure: Inhibition of the proliferation of NPM/ALK positive cells
as §2
as §3, with “NPM/ALK, NPM/ALK positive SUDHL-1 cells, ALK-negative” for “bcr-abl, Abl-negative”, “NPM/ALK” for “or Bcr-abl”, “KARPAS-299” for “LAMA-84”, “Alk-negative” for “Abl-negative”, “^3[H]-thymidine” for “^3H-thymidine”

[6] = tested on: parent untransformed BaF3 cells; assay: Tritiated thymidine uptake cell proliferation assay, parental BaF3 (control); format: cell-based; settings: Mus musculus, 3[H]-thymidine uptake, 72 h, medium with IL-3, read-out: BaF parental IC50
How it was run: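 Control lines were parental BaF3 in IL-3-supplemented medium and ALK-, Abl- or RET-negative U937, seeded at 10 000 cells/well with serial inhibitor dilutions for 72 h at 37 °C. ³H-thymidine (1 μCi/well) was added for the final 16 h; IC50 (μM) is the concentration halving uptake versus DMSO.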

Recombinant ALK kinase = target: T3, Recombinant ALK kinase (Homo sapiens, UniProt Q9UM73); assay: ALK kinase inhibitory activity, ELISA-based in vitro kinase assay; format: biochemical; settings: purified rALK, 0.3 mM ATP, read-out: ALK IC50
T3 construct: made in house; host or cells: Sf9 insect cells (baculovirus)
T3 sequence (Q9UM73 19-1620): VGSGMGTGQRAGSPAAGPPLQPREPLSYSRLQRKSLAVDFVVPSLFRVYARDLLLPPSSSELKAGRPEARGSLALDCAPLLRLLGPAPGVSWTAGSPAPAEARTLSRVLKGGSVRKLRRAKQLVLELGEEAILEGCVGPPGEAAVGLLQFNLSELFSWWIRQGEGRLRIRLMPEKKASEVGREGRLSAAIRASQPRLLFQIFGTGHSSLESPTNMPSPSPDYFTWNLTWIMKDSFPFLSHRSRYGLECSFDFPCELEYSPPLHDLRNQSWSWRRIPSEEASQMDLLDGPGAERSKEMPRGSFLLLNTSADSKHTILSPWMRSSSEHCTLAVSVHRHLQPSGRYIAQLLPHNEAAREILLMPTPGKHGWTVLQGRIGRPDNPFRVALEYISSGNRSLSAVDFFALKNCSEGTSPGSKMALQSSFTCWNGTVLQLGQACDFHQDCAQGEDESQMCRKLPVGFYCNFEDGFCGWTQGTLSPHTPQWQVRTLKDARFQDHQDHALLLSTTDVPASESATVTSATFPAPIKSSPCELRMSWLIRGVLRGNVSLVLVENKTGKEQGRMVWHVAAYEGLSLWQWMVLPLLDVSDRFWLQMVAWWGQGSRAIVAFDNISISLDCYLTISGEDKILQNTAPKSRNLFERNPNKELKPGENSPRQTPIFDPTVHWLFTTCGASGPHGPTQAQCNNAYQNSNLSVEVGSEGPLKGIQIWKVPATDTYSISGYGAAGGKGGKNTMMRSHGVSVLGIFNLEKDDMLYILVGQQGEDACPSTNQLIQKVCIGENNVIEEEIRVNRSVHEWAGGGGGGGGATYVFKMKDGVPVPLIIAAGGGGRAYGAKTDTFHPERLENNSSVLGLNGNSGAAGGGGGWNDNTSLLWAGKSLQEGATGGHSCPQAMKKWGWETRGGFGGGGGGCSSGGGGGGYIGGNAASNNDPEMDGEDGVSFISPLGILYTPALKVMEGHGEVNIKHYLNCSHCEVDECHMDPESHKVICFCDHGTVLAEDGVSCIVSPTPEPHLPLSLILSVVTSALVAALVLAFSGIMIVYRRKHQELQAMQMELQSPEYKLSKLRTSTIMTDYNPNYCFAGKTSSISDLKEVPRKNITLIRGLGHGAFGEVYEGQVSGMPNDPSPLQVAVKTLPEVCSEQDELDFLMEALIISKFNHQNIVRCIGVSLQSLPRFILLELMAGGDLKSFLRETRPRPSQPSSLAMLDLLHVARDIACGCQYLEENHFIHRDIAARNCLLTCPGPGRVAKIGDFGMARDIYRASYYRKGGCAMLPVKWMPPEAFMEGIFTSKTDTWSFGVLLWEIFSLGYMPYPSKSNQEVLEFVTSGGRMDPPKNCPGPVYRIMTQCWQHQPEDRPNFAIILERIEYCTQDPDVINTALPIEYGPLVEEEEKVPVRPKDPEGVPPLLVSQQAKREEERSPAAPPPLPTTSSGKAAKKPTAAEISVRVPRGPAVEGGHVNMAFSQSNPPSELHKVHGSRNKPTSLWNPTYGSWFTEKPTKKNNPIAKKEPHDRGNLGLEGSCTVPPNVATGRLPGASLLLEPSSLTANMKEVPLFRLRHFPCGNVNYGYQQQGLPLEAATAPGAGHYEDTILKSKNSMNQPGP
How it was run: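 Sf9-expressed, purified recombinant ALK phosphorylated a plate-coated peptide substrate with 0.3 mM ATP, Mn2+/Mg2+, pH 7.5, 15 min at 30° C, after 10 min inhibitor preincubation. Phosphotyrosine was detected by anti-pTyr ELISA (TMB, A450); IC50 in μM is the concentration giving 50% inhibition relative to control.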

[7] = target: BaF3 cells transformed with the oncogenic fusion protein bcr-abl (Homo sapiens, UniProt P00519); assay: Tritiated thymidine uptake cell proliferation assay, BaF3 BCR/ABL; format: cell-based; settings: 3[H]-thymidine uptake, 72 h; read-out: BaF BCR/ABL IC50
Procedure: as §1, §2, §3

Recombinant Ret protein = target: T4, Recombinant Ret protein (Homo sapiens, UniProt P07949); assay: RET kinase inhibitory activity, ELISA-based in vitro kinase assay; format: biochemical; settings: purified Ret, 0.3 mM ATP
T4 construct: made in house; host or cells: Sf9 cells (baculovirus)
T4 sequence (P07949 29-1114): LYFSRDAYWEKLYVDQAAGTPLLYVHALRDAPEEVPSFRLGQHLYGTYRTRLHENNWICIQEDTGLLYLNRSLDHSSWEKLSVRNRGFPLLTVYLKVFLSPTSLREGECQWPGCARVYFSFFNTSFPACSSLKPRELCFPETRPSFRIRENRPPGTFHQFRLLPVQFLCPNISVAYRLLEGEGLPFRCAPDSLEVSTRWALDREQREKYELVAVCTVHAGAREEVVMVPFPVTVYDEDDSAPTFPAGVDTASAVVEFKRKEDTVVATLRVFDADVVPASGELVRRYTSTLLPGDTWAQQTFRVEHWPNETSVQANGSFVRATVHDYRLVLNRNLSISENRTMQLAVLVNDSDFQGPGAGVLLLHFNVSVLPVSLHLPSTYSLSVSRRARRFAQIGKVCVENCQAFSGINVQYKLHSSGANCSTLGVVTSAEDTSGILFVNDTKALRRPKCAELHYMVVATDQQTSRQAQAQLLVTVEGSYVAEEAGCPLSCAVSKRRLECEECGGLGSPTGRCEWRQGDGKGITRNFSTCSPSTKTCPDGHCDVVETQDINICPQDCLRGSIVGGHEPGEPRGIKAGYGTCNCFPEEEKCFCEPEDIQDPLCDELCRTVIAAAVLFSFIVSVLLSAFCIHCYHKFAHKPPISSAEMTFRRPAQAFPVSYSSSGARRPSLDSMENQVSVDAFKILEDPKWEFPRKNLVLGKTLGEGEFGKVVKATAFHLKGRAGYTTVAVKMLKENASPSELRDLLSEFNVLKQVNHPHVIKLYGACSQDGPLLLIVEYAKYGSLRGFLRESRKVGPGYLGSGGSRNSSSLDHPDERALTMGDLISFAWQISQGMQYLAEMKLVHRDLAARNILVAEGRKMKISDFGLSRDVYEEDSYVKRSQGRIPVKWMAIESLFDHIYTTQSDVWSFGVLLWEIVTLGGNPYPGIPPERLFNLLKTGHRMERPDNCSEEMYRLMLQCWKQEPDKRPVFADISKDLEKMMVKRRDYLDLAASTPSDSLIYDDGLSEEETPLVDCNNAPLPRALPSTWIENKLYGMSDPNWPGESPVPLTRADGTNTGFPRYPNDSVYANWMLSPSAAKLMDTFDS

[8] = target: T5, BaF3 cells transformed with the oncogenic fusion protein RET-PTC2 (Homo sapiens, UniProt P07949); assay: Tritiated thymidine uptake cell proliferation assay, BaF3 RET/PTC; format: cell-based; settings: 3[H]-thymidine uptake, 72 h; read-out: BaF RET/PTC IC50
T5 construct: fused on or other part: P10644 (cAMP-dependent protein kinase type I-alpha regulatory subunit)
Procedure: Inhibition of the Proliferation of RET-positive Cells
as §2
as §3, with “RET-PTC2,” for “bcr-abl, Abl-negative U937 cells,”, “RET-negative 11937” for “Bcr-abl positive LAMA-84”, “RET-negative” for “Abl-negative”, “^3[H]-thymidine” for “^3H-thymidine”

SMILES	IC50 [1] [µM]	GI50 [2] [µM]	IC50 [3] [µM]	IC50 [4] [µM]	IC50 [5] [µM]	IC50 [6] [µM]	IC50 (Recombinant ALK kinase) [µM]	GI50 [7] [µM]	IC50 (Recombinant Ret protein) [µM]	GI50 [8] [µM]
C(=C\c1cnc2[nH]c3ccc(-c4ccc(CN5CCOCC5)cc4)cc3c2c1)/c1ccccc1 [R314, 6-(4-(morpholin-4-yl)methylphenyl)-3-(2′-phenylethenyl)-9H-pyrido[2,3-b]indole]	2.1	1.6 ± 0.1	> 50	2.1	–	–	–	–	–	–
Clc1cnc2[nH]c3ccc(Br)cc3c2c1 [R252, 6-bromo-3-chloro-9H-pyrido[2,3-b]indole]	–	> 20	–	–	> 20	> 20	1.7 ± 0.4	> 20	–	–
COc1ccc(-c2ccc3[nH]c4nc(-c5ccc(OC)cc5)ccc4c3c2)cc1 [R311, 2,6-di(4-methoxyphenyl)-9H-pyrido[2,3-b]indole]	55	15 ± 3	8.3	32	–	> 100	–	–	–	–
O=C(CSc1ccccc1)c1ccc2[nH]c3nc(Cl)ccc3c2c1 [R306, 1-(2-Chloro-9H-pyrido[2,3-b]indol-6-yl)-2-phenylsulfanylethanone]	1.4	7.3 ± 0.3	3.5 ± 0.03	5.7	–	25 ± 3	0.8 ± 0.3	–	1.3	–
O=C(CBr)c1ccc2[nH]c3ncccc3c2c1 [R228]	–	8	13 ± 4.6	–	–	13	–	18	16	11
COc1ccc(CNC(=O)CCC(=O)c2ccc3[nH]c4ncc(Cl)cc4c3c2)cc1 [R304, 4-(3-Chloro-9H-pyrido[2,3-b]indol-6-yl)-N-(4-methoxybenzyl)-4-oxobutyramide]	1.6	2.6 ± 1	5	8.4	–	19 ± 7	–	–	–	–
CN1CCN(Cc2ccc(C(=O)Nc3nc(-c4ccc5[nH]c6ncccc6c5c4)cs3)cc2)CC1 [R222]	–	1.5	> 100	–	–	1.5	88 ± 4.3	2.5	8.8 ± 1.6	1.6
